Molecular target: β2-adrenoreceptor (Homo sapiens, UniProt P07550)
Assay: Ultrafiltration target-binding test of extract of taraxacum with β2-adrenoreceptor membrane preparation (Example 3)
[1] = Sample 351, no receptor, extract 1.5 mg (7.5 g/l)
[2] = Sample 355, receptor 1.04 pmol (5.2 nmol/l), extract 1.5 pmol (7.5 nmol/l)
[3] = Sample 356, receptor 1.04 pmol (5.2 nmol/l), extract 1.5 pmol (7.5 nmol/l)
[4] = Sample 360, no receptor, extract 0.3 mg (1.5 g/l)
[5] = Sample 361, receptor 1.04 pmol (5.2 nmol/l), extract 0.3 mg (1.5 g/l)
[6] = Sample 362, no receptor, extract 0.6 mg (3 g/l)
[7] = Sample 363, receptor 1.04 pmol (5.2 nmol/l), extract 0.6 mg (3 g/l)
[8] = Sample 364, no receptor, extract 1.0 mg (5.0 g/l)
[9] = Sample 365, receptor 1.04 pmol (5.2 nmol/l), extract 1.0 mg (5.0 g/l)
[10] = Sample 366, receptor 1.04 pmol (5.2 nmol/l), extract 1.5 mg (7.5 g/l)
[11] = Sample 367, receptor 1.04 pmol (5.2 nmol/l), extract 1.5 mg (7.5 g/l)
[12] = Sample 369, receptor 1.04 pmol (5.2 nmol/l), extract 1.5 mg (7.5 g/l)
[13] = Sample 373, receptor 1.04 pmol (5.2 nmol/l), extract 1.5 mg (7.5 g/l)
[14] = Sample 374, receptor 0.52 pmol (2.6 nmol/l), extract 1.5 mg (7.5 g/l)
[15] = Sample 375, receptor 0.26 pmol (1.3 nmol/l), extract 1.5 mg (7.5 g/l)

Sequence of β2-adrenoreceptor (P07550 whole entry): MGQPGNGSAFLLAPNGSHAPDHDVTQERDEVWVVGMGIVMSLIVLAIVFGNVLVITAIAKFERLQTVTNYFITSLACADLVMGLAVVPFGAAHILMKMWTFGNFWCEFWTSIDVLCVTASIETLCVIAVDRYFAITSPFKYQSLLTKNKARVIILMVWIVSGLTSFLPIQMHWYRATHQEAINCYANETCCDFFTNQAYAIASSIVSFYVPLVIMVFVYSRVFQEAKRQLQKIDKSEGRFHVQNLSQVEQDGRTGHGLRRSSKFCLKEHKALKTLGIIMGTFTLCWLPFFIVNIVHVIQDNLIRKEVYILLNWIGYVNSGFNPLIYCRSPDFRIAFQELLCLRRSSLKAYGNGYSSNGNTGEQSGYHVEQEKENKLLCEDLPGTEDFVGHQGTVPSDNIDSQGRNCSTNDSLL
Description: Substance used for the assays: • a) extr. taraxaci spir. sicc.
In the assays, the extract of taraxacum and the membrane preparation were combined in different stoichiometric ratios, dissolved in 200 μl of binding buffer (150 mM of NaCl, 50 mM of tris, pH 8.2 in water).
The receptor-ligand binding was completed by 30-minute-long incubation of the mixture at 30-34° C. The solutions were then placed on a Microcon 10 centrifugal filter and centrifuged at 9981×g for 15 min or until dryness of the filter. […] After two washing steps with binding buffer, the complexes present on the filter were separated by treatment with 200 μl of TFA (1/49.5/49.5).
The eluates from the following four filtration steps were centrifuged under vacuum until dryness, and the substances obtained were dissolved by means of ultrasound in 10 μl of the mobile phase of the HPLC (cf. Example 1), shortly before LC analysis.

Question: What does the source list for O=C(/C=C/c1ccc(O)c(O)c1)O[C@@H](C(=O)O)[C@@H](OC(=O)/C=C/c1ccc(O)c(O)c1)C(=O)O [Substance L6, trans-chicorinic acid]?
Answer: 1st Wash [1]: 15045 nmol/L; 2nd Wash [1]: 750.8 nmol/L; Filtrate [1]: 5970.7 nmol/L; Liberation [1]: 195.0 nmol/L; 1st Wash [2]: 451.4 nmol/L; 2nd Wash [2]: 100.4 nmol/L; Filtrate [2]: 1482.0 nmol/L; Liberation [2]: 707.0 nmol/L; 1st Wash [3]: 600.1 nmol/L; 2nd Wash [3]: 202.1 nmol/L; Filtrate [3]: 1848.6 nmol/L; Liberation [3]: 2199.1 nmol/L; 1st Wash [4]: 468.9 nmol/L; 2nd Wash [4]: 140.3 nmol/L; Filtrate [4]: 2935.2 nmol/L; Liberation [4]: 34.7 nmol/L; 1st Wash [5]: 146.5 nmol/L; 2nd Wash [5]: 124.3 nmol/L; Filtrate [5]: 1588.2 nmol/L; Liberation [5]: 138.1 nmol/L; 1st Wash [6]: 958.0 nmol/L; 2nd Wash [6]: 351.4 nmol/L; Filtrate [6]: 3446.6 nmol/L; Liberation [6]: 85.4 nmol/L; 1st Wash [7]: 248.3 nmol/L; 2nd Wash [7]: 142.0 nmol/L; Filtrate [7]: 1180.6 nmol/L; Liberation [7]: 257.0 nmol/L; 1st Wash [8]: 1377.0 nmol/L; 2nd Wash [8]: 627.8 nmol/L; Filtrate [8]: 3752.4 nmol/L; Liberation [8]: 151.3 nmol/L; 1st Wash [9]: 626.7 nmol/L; 2nd Wash [9]: 141.6 nmol/L; Filtrate [9]: 2291.6 nmol/L; Liberation [9]: 439.6 nmol/L; 1st Wash [10]: 620.0 nmol/L; 2nd Wash [10]: 181.5 nmol/L; Filtrate [10]: 5581.8 nmol/L; Liberation [10]: 504.8 nmol/L; 1st Wash [11]: 832.5 nmol/L; 2nd Wash [11]: 274.6 nmol/L; Filtrate [11]: 5159.0 nmol/L; Liberation [11]: 616.8 nmol/L; 1st Wash [12]: 478.1 nmol/L; 2nd Wash [12]: 341.9 nmol/L; Filtrate [12]: 7449.7 nmol/L; Liberation [12]: 674.0 nmol/L; 1st Wash [13]: 182.7 nmol/L; 2nd Wash [13]: 277.1 nmol/L; Filtrate [13]: 5562.6 nmol/L; Liberation [13]: 2096.1 nmol/L; 1st Wash [14]: 1062.4 nmol/L; 2nd Wash [14]: 476.6 nmol/L; Filtrate [14]: 8589.0 nmol/L; Liberation [14]: 1015.4 nmol/L; 1st Wash [15]: 921.1 nmol/L; 2nd Wash [15]: 433.9 nmol/L; Filtrate [15]: 10838.5 nmol/L; Liberation [15]: 279.9 nmol/L

Question: How did the “1st Wash” value [1] turn out when O=C(/C=C/c1ccc(O)c(O)c1)OC(C(=O)O)C(O)C(=O)O (stereo not drawn) [Substance L3, trans-caftarinic acid] was run?
Answer: The value was 51.0 nmol/L.

Question: What about the “2nd Wash” value [1] of the same compound?
Answer: Its value is 8.0 nmol/L.

Question: And the Filtrate [1]?
Answer: The Filtrate was 740.3 nmol/L.

Question: What about the Liberation [1] of the same compound?
Answer: Its Liberation is 11.9 nmol/L.

Question: And the “1st Wash” value [2]?
Answer: The value was 88.8 nmol/L.

Question: And the “2nd Wash” value [2]?
Answer: Its value is 12.9 nmol/L.

Question: And the Filtrate [2]?
Answer: The Filtrate was 353.5 nmol/L.

Question: And the Liberation [2]?
Answer: The Liberation was 15.8 nmol/L.

Question: And the “1st Wash” value [3]?
Answer: Its value is 79.0 nmol/L.

Question: What about the “2nd Wash” value [3] of the same compound?
Answer: The value was 9.9 nmol/L.

Question: What about the Filtrate [3] of the same compound?
Answer: Its Filtrate is 961.9 nmol/L.

Question: And the Liberation [3]?
Answer: Its Liberation is 26.3 nmol/L.

Question: And the “1st Wash” value [4]?
Answer: The value was 22.7 nmol/L.

Question: And the “2nd Wash” value [4]?
Answer: Its value is 0 nmol/L.

Question: What about the Filtrate [4] of the same compound?
Answer: Its Filtrate is 411.5 nmol/L.

Question: What about the Liberation [4] of the same compound?
Answer: The Liberation was 8.1 nmol/L.

Question: What about the “1st Wash” value [5] of the same compound?
Answer: The value was 16.5 nmol/L.

Question: What about the “2nd Wash” value [5] of the same compound?
Answer: The value was 29.6 nmol/L.

Question: And the Filtrate [5]?
Answer: The Filtrate was 537.0 nmol/L.

Question: What about the Liberation [5] of the same compound?
Answer: The Liberation was 11.2 nmol/L.

Question: And the “1st Wash” value [6]?
Answer: Its value is 20.5 nmol/L.

Question: And the “2nd Wash” value [6]?
Answer: The value was 5.6 nmol/L.

Question: And the Filtrate [6]?
Answer: Its Filtrate is 650.1 nmol/L.

Question: What about the Liberation [6] of the same compound?
Answer: The Liberation was 3.2 nmol/L.

Question: And the “1st Wash” value [7]?
Answer: The value was 54.4 nmol/L.

Question: What about the “2nd Wash” value [7] of the same compound?
Answer: Its value is 0 nmol/L.

Question: What about the Filtrate [7] of the same compound?
Answer: The Filtrate was 736.9 nmol/L.

Question: And the Liberation [7]?
Answer: The Liberation was 8.7 nmol/L.

Question: What about the “1st Wash” value [8] of the same compound?
Answer: The value was 36.9 nmol/L.

Question: What about the “2nd Wash” value [8] of the same compound?
Answer: Its value is 3.0 nmol/L.

Question: What about the Filtrate [8] of the same compound?
Answer: The Filtrate was 1034.4 nmol/L.

Question: What about the Liberation [8] of the same compound?
Answer: The Liberation was 5.3 nmol/L.

Question: What about the “1st Wash” value [9] of the same compound?
Answer: The value was 51.7 nmol/L.

Question: And the “2nd Wash” value [9]?
Answer: Its value is 8.6 nmol/L.

Question: And the Filtrate [9]?
Answer: The Filtrate was 1221.4 nmol/L.

Question: And the Liberation [9]?
Answer: The Liberation was 9.8 nmol/L.

Question: What about the “1st Wash” value [10] of the same compound?
Answer: Its value is 102.8 nmol/L.

Question: And the “2nd Wash” value [10]?
Answer: The value was 2.3 nmol/L.

Question: What about the Filtrate [10] of the same compound?
Answer: The Filtrate was 2088.5 nmol/L.

Question: And the Liberation [10]?
Answer: The Liberation was 7.6 nmol/L.

Question: And the “1st Wash” value [11]?
Answer: The value was 46.2 nmol/L.

Question: What about the “2nd Wash” value [11] of the same compound?
Answer: Its value is 15.6 nmol/L.

Question: What about the Filtrate [11] of the same compound?
Answer: Its Filtrate is 2310.8 nmol/L.

Question: What about the Liberation [11] of the same compound?
Answer: Its Liberation is 6.3 nmol/L.

Question: What about the “1st Wash” value [12] of the same compound?
Answer: Its value is 90.8 nmol/L.

Question: What about the “2nd Wash” value [12] of the same compound?
Answer: Its value is 41.8 nmol/L.

Question: And the Filtrate [12]?
Answer: The Filtrate was 2381.4 nmol/L.

Question: And the Liberation [12]?
Answer: The Liberation was 7.0 nmol/L.

Question: What about the “1st Wash” value [13] of the same compound?
Answer: The value was 91.7 nmol/L.

Question: What about the “2nd Wash” value [13] of the same compound?
Answer: Its value is 26.6 nmol/L.

Question: What about the Filtrate [13] of the same compound?
Answer: Its Filtrate is 2450.0 nmol/L.

Question: What about the Liberation [13] of the same compound?
Answer: The Liberation was 36.2 nmol/L.

Question: And the “1st Wash” value [14]?
Answer: Its value is 44.0 nmol/L.

Question: And the “2nd Wash” value [14]?
Answer: Its value is 7.4 nmol/L.

Question: What about the Filtrate [14] of the same compound?
Answer: The Filtrate was 2593.2 nmol/L.

Question: What about the Liberation [14] of the same compound?
Answer: Its Liberation is 25.3 nmol/L.

Question: What about the “1st Wash” value [15] of the same compound?
Answer: Its value is 39.7 nmol/L.

Question: And the “2nd Wash” value [15]?
Answer: The value was 19.6 nmol/L.

Question: And the Filtrate [15]?
Answer: Its Filtrate is 2252.1 nmol/L.

Question: What about the Liberation [15] of the same compound?
Answer: The Liberation was 19.0 nmol/L.

— patent US7232690B1, “Method and device for detecting and isolating pharmacological compounds being contained in substance mixtures” (LTS Lohmann Therapie-Systeme AG, priority 1999, dated 2007)
